Measured values as given in article PMC4620497 (Scientific Reports, 2015).

Key:
JNK2 = molecular target: T1, JNK2 (Homo sapiens, UniProt P45984); test: KINOMEscan panel screen; format: binding; conditions: read-out: Percent Control(%)
T1 construct: purchased DiscoveRx KINOMEscan (Ambit Biosciences)

MEK6 = molecular target: T2, MEK6 (Homo sapiens, UniProt P52564); test: KINOMEscan panel screen; format: binding; conditions: read-out: Percent Control(%)
T2 construct: purchased DiscoveRx KINOMEscan (Ambit Biosciences)

CDK4-cyclinD1 = molecular target: T3, CDK4-cyclinD1 (Homo sapiens, UniProt P11802); test: KINOMEscan panel screen; format: binding; conditions: read-out: Percent Control(%)
T3 construct: purchased DiscoveRx KINOMEscan (Ambit Biosciences)

CDK7 = molecular target: T4, CDK7 (Homo sapiens, UniProt P50613); test: KINOMEscan panel screen; format: binding; conditions: read-out: Percent Control(%)
T4 construct: purchased DiscoveRx KINOMEscan (Ambit Biosciences)

PIK3CA(E542K) = molecular target: T5, PIK3CA(E542K) (Homo sapiens, UniProt P42336, E542K); test: KINOMEscan panel screen; format: binding; conditions: read-out: Percent Control(%)
T5 construct: purchased DiscoveRx KINOMEscan (Ambit Biosciences)
T5 sequence (P42336 whole entry E542K): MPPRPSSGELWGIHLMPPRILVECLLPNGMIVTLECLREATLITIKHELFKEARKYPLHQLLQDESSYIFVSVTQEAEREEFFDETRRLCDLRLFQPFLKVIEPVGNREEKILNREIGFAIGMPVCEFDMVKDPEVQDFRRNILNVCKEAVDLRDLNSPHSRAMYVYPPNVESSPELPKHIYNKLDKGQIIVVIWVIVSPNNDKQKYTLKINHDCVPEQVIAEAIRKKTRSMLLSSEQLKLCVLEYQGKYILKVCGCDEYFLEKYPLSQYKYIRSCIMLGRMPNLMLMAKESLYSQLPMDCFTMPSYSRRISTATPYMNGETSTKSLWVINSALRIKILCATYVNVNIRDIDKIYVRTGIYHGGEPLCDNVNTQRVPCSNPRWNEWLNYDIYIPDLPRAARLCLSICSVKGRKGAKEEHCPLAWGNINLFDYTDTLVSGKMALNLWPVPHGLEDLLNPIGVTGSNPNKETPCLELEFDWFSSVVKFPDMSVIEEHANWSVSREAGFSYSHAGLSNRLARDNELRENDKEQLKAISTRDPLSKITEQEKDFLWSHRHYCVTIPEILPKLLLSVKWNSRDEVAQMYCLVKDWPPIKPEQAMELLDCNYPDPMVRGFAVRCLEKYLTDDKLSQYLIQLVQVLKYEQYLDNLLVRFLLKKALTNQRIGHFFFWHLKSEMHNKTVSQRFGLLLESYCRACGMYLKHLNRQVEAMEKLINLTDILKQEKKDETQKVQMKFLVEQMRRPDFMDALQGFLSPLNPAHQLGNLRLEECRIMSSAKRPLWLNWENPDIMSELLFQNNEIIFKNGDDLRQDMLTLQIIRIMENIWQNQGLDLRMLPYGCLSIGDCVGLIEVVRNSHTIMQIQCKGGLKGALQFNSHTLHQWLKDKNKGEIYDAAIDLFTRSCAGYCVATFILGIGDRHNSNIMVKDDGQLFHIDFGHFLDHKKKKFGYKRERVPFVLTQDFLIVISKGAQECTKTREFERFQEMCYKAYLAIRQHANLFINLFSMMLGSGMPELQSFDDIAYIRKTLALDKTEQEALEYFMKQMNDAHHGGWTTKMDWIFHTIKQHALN

PHKG1 = molecular target: T6, PHKG1 (Homo sapiens, UniProt Q16816); test: KINOMEscan panel screen; format: binding; conditions: read-out: Percent Control(%)
T6 construct: purchased DiscoveRx KINOMEscan (Ambit Biosciences)

PFTAIRE2 = molecular target: T7, PFTAIRE2 (Homo sapiens, UniProt Q96Q40); test: KINOMEscan panel screen; format: binding; conditions: read-out: Percent Control(%)
T7 construct: purchased DiscoveRx KINOMEscan (Ambit Biosciences)

PDGFRα = molecular target: T8, PDGFRα (Homo sapiens, UniProt P16234); test: KINOMEscan kinase binding assay (Kd)
T8 construct: purchased Ambit Biosciences (KINOMEscan)
T8 sequence (P16234 24-1089): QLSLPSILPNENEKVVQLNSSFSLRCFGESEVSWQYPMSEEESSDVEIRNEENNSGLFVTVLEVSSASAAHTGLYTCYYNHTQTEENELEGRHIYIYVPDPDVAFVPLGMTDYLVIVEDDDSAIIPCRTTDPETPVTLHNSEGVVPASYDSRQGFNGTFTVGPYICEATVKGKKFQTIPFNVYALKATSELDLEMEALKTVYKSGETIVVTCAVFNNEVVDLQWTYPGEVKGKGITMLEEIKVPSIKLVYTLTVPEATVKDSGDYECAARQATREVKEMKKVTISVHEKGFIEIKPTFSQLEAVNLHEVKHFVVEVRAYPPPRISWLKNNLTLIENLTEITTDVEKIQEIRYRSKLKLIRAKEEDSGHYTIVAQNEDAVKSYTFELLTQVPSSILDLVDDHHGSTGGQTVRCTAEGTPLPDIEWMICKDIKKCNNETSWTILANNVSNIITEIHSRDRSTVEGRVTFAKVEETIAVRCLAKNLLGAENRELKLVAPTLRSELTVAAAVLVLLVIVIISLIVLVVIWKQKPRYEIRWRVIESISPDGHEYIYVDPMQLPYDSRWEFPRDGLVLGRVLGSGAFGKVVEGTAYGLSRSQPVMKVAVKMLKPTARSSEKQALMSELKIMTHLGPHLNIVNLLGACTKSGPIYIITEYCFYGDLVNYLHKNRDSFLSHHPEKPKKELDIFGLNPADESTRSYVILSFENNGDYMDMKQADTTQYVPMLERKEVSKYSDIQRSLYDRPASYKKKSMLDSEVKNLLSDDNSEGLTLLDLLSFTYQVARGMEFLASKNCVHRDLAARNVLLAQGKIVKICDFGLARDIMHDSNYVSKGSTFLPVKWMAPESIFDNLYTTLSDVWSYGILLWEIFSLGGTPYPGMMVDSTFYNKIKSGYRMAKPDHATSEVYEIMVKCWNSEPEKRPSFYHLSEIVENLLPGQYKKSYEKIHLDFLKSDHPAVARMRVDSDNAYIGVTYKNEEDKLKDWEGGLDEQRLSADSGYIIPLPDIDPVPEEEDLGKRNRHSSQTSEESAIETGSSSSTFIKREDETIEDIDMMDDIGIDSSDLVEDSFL

LOK = LOK (Homo sapiens, UniProt O94804); test: KINOMEscan kinase binding assay (Kd)
PIK3CA(Q546K) = molecular target: T9, PIK3CA(Q546K) (Homo sapiens, UniProt P42336, Q546K); test: KINOMEscan panel screen; format: binding; conditions: read-out: Percent Control(%)
T9 construct: purchased DiscoveRx KINOMEscan (Ambit Biosciences)
T9 sequence (P42336 whole entry Q546K): as the sequence (P42336 whole entry E542K) above, with K542E, Q546K counted along it

CSNK1G1 = molecular target: T10, CSNK1G1 (Homo sapiens, UniProt Q9HCP0); test: KINOMEscan panel screen; format: binding; conditions: read-out: Percent Control(%)
T10 construct: purchased DiscoveRx KINOMEscan (Ambit Biosciences)
T10 sequence (Q9HCP0 whole entry): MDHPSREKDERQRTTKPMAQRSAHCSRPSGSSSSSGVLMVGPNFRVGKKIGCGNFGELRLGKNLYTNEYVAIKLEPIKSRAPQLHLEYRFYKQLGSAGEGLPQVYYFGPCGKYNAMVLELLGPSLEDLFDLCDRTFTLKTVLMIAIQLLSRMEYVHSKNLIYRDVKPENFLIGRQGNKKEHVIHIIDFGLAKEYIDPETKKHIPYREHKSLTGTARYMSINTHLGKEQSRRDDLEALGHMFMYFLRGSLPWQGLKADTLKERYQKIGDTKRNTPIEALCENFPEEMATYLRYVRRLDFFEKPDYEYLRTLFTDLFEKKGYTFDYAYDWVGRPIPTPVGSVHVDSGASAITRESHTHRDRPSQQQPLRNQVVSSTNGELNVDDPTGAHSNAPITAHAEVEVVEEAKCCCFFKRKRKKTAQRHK

TRKC = molecular target: T11, TRKC (Homo sapiens, UniProt Q16288); test: KINOMEscan panel screen; format: binding; conditions: read-out: Percent Control(%)
T11 construct: purchased DiscoveRx KINOMEscan (Ambit Biosciences)
T11 sequence (Q16288 32-839): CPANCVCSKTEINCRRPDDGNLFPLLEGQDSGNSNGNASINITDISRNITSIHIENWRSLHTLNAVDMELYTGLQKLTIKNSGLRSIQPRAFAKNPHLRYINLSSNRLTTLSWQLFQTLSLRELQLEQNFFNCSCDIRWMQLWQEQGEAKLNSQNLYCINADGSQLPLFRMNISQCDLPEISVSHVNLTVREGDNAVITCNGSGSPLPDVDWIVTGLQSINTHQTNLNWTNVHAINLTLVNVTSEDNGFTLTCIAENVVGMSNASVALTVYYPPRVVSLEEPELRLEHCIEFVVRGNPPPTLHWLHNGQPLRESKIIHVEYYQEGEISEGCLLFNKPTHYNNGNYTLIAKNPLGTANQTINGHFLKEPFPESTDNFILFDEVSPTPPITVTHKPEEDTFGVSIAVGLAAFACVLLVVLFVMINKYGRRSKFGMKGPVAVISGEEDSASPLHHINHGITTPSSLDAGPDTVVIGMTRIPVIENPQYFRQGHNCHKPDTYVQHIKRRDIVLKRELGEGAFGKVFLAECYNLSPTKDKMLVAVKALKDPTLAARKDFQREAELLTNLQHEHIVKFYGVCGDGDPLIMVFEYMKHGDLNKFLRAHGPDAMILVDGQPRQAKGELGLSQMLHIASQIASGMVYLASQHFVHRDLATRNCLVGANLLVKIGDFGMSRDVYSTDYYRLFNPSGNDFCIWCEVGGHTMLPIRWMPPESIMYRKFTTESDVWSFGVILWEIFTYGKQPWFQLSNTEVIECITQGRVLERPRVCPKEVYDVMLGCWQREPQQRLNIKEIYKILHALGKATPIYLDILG

EPHA1 = molecular target: T12, EPHA1 (Homo sapiens, UniProt P21709); test: KINOMEscan panel screen; format: binding; conditions: read-out: Percent Control(%)
T12 construct: purchased DiscoveRx KINOMEscan (Ambit Biosciences)

NEK10 = molecular target: T13, NEK10 (Homo sapiens, UniProt Q6ZWH5); test: KINOMEscan panel screen; format: binding; conditions: read-out: Percent Control(%)
T13 construct: purchased DiscoveRx KINOMEscan (Ambit Biosciences)
T13 sequence (Q6ZWH5 whole entry): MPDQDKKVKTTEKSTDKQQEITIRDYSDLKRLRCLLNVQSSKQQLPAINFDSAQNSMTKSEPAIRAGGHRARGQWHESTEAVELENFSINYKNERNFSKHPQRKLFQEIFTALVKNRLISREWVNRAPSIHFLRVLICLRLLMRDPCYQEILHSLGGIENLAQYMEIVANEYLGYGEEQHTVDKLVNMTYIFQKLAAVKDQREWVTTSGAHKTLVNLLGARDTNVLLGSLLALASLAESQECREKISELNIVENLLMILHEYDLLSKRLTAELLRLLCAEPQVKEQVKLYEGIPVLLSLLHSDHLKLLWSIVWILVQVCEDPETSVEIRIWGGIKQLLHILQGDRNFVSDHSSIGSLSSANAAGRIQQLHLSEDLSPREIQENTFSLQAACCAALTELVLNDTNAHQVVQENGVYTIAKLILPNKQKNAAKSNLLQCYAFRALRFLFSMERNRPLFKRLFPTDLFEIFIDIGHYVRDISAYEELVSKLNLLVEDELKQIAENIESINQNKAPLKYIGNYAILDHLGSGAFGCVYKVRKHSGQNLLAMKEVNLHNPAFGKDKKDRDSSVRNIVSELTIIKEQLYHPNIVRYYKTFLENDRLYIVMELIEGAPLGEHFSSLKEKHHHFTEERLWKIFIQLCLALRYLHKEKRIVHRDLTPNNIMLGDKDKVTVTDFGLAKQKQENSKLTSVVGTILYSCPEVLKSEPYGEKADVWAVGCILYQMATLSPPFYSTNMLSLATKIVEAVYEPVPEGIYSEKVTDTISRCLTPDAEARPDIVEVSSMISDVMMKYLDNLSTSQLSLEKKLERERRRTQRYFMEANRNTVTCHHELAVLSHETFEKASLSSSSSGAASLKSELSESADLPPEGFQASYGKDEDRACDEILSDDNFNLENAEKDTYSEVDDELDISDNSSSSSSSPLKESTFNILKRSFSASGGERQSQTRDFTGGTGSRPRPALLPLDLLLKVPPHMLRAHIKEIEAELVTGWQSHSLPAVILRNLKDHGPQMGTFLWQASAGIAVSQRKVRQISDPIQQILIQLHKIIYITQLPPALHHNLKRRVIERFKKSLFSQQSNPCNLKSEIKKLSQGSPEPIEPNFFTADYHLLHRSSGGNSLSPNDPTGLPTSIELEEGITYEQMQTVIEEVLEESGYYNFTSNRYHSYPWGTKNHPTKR

STK16 = molecular target: T14, STK16 (Homo sapiens, UniProt O75716); test: KINOMEscan panel screen; format: binding; conditions: read-out: Percent Control(%)
T14 construct: purchased DiscoveRx KINOMEscan (Ambit Biosciences)

[1] = test system: primary AML PBMCs SP cells; test: Hoechst 33342 side population (SP) cell assay; format: cell-based, human; conditions: 5 μM, 48 h; vehicle 0.5%
From the text: (§1) Flow cytometry and Hoechst 33342 dye efflux assays were used to examine the possible influences of SKLB-677 on leukemia SP cells. This method is based on the findings that stem cells and early progenitors are able to pump out Hoechst via the ATP-Binding Cassette (ABC) transporters. This property allows the observation of a cell population (called side population) that has low Hoechst fluorescence in the blue and red regions of the spectrum. In this study, the Hoechst SP cell assays were performed with human AML MV4-11 and KG-1 cells, as well as primary AML PBMCs. […] As shown in Fig. 4a and Supplementary Fig. S6, MV4-11, KG-1, and primary AML PBMCs contained about 22.3%, 3.1%, and 0.5% SP cells, respectively.
(§2) Supplementary Mat eri al and Methods […]
(§3) Reactions were monitored by thin la yer chrom atograph y (TLC) on M erck silica gel 60 F-254 thin la yer plates. 1H NMR and 13C NMR spectra were recorded on a Bruker AV -400 spectrometer at 400 MHz and 100 MHz, respectivel y. […]
(§4) Lo w -resolution and high-resolution mass spectral (MS) data were determined on an Agilent 1100 Series LCMS with UV detection at 254nm in low -reson ance electrospray mode (ESI). All final compounds were purified to >95% purity, as determined b y hi gh- performance liquid chromatograph y (HP LC). […]

KG-1 SP cells = test: Hoechst 33342 side population (SP) cell assay; format: cell-based, human; conditions: 5 μM, 48 h; vehicle 3.1%
From the text: as §1, §2, §3, §4

PYK2 = molecular target: T15, PYK2 (Homo sapiens, UniProt Q14289); test: KINOMEscan panel screen; format: binding; conditions: read-out: Percent Control(%)
T15 construct: purchased DiscoveRx KINOMEscan (Ambit Biosciences)

ZAK = molecular target: T16, ZAK (Homo sapiens, UniProt Q9NYL2); test: KINOMEscan panel screen; format: binding; conditions: read-out: Percent Control(%)
T16 construct: purchased DiscoveRx KINOMEscan (Ambit Biosciences)

ARK5 = molecular target: T17, ARK5 (Homo sapiens, UniProt O60285); test: KINOMEscan panel screen; format: binding; conditions: read-out: Percent Control(%)
T17 construct: purchased DiscoveRx KINOMEscan (Ambit Biosciences)

SRPK1 = molecular target: T18, SRPK1 (Homo sapiens, UniProt Q96SB4); test: KINOMEscan panel screen; format: binding; conditions: read-out: Percent Control(%)
T18 construct: purchased DiscoveRx KINOMEscan (Ambit Biosciences)

MAPKAPK5 = molecular target: T19, MAPKAPK5 (Homo sapiens, UniProt Q8IW41); test: KINOMEscan panel screen; format: binding; conditions: read-out: Percent Control(%)
T19 construct: purchased DiscoveRx KINOMEscan (Ambit Biosciences)
T19 sequence (Q8IW41 whole entry): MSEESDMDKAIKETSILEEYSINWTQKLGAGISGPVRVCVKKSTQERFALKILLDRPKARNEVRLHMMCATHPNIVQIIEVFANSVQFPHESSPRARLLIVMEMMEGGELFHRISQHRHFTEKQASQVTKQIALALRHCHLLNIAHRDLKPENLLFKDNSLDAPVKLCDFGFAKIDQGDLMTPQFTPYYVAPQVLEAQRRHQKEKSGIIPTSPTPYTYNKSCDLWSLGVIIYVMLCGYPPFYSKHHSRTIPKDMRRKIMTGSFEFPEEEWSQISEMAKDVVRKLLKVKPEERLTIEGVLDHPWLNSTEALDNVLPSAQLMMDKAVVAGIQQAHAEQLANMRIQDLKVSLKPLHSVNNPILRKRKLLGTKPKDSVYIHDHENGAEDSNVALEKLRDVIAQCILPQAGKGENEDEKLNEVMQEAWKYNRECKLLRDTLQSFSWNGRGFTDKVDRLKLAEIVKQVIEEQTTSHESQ

CDKL1 = molecular target: T20, CDKL1 (Homo sapiens, UniProt Q00532); test: KINOMEscan panel screen; format: binding; conditions: read-out: Percent Control(%)
T20 construct: purchased DiscoveRx KINOMEscan (Ambit Biosciences)

MARK4 = molecular target: T21, MARK4 (Homo sapiens, UniProt Q96L34); test: KINOMEscan panel screen; format: binding; conditions: read-out: Percent Control(%)
T21 construct: purchased DiscoveRx KINOMEscan (Ambit Biosciences)

ULK2 = molecular target: T22, ULK2 (Homo sapiens, UniProt Q8IYT8); test: KINOMEscan panel screen; format: binding; conditions: read-out: Percent Control(%)
T22 construct: purchased DiscoveRx KINOMEscan (Ambit Biosciences)

RET = molecular target: T23, RET (Homo sapiens, UniProt P07949); test: KINOMEscan panel screen; format: binding; conditions: read-out: Percent Control(%)
T23 construct: purchased DiscoveRx KINOMEscan (Ambit Biosciences)

NIM1 = molecular target: T24, NIM1 (Homo sapiens, UniProt Q8IY84); test: KINOMEscan panel screen; format: binding; conditions: read-out: Percent Control(%)
T24 construct: purchased DiscoveRx KINOMEscan (Ambit Biosciences)

MET = molecular target: T25, MET (Homo sapiens, UniProt P08581); test: KINOMEscan kinase binding assay (Kd)
T25 construct: purchased DiscoveRx KINOMEscan (Ambit Biosciences)

ASK2 = molecular target: T26, ASK2 (Homo sapiens, UniProt O95382); test: KINOMEscan panel screen; format: binding; conditions: read-out: Percent Control(%)
T26 construct: purchased DiscoveRx KINOMEscan (Ambit Biosciences)

Compound: CC(C)(C)c1cc(NC(=O)Nc2ccc(Oc3ncnc4[nH]ncc34)c(F)c2)no1 [SKLB-677, 1-(4-(1H-pyrazolo[3,4-d]pyrimidin-4-yloxy)-3-fluorophenyl)-3-(5-tert-butylisoxazol-3-yl)urea]
- remaining binding at 10 µM (JNK2): 2%
- remaining binding at 10 µM (MEK6): 62%
- remaining binding at 10 µM (CDK4-cyclinD1): 29%
- remaining binding at 10 µM (CDK7): 3.1%
- remaining binding at 10 µM (PIK3CA(E542K)): 100%
- remaining binding at 10 µM (PHKG1): 85%
- remaining binding at 10 µM (PFTAIRE2): 0.85%
- Kd (PDGFRα): 12 nM
- Kd (LOK): 5.1 nM
- remaining binding at 10 µM (PIK3CA(Q546K)): 100%
- remaining binding at 10 µM (CSNK1G1): 86%
- remaining binding at 10 µM (TRKC): 0.05%
- remaining binding at 10 µM (EPHA1): 9.2%
- remaining binding at 10 µM (NEK10): 93%
- remaining binding at 10 µM (STK16): 36%
- SP cells [1]: could almost eliminate SP cells
- SP cells (KG-1 SP cells): could almost eliminate SP cells
- remaining binding at 10 µM (PYK2): 64%
- remaining binding at 10 µM (ZAK): 1.5%
- remaining binding at 10 µM (ARK5): 47%
- remaining binding at 10 µM (SRPK1): 96%
- remaining binding at 10 µM (MAPKAPK5): 97%
- remaining binding at 10 µM (CDKL1): 3.3%
- remaining binding at 10 µM (MARK4): 70%
- remaining binding at 10 µM (ULK2): 97%
- remaining binding at 10 µM (RET): 0.05%
- remaining binding at 10 µM (NIM1): 33%
- Kd (MET): 220 nM
- remaining binding at 10 µM (ASK2): 32%
